Here are results for 15 compounds from ChEMBL document CHEMBL2363022, “Malaria Box Schistosomiasis Screening Data” (2013).

For assay [1], the system named is Schistosoma mansoni. It counts as functional. Further details: scale not given here.
The test system of assay [2] is Schistosoma mansoni.
Assay [3] concerns Schistosoma mansoni. It counts as functional. The arrangement: scale not given here. This is another data set of the same source.
In assay [4] the test system is Schistosoma mansoni. Nature of the assay: MMV: Toxicity @ 5 uM to 4-5 Schistosoma mansoni adult males after 48 h on a scale of 0 (none) - 4 (most). Includes short descriptors of effects as judged visually (PMID:19597541). Only those Malaria box 'drug-like' cpds yielding the most severe phenotypes vs. somules were tested. Caffrey group UCSF. It counts as functional.

In assay [5] the test system is Schistosoma mansoni. Nature of the assay: MMV: Motility assay. Percent change (relative to DMSO controls) @ 5 uM of movement of 4-5 Schistosoma mansoni adult males after 24 h as measured by the Consensus Voting Luminance Difference algorithm available on WormAssay (PMID:22303493). Occasional incongruence ocurrs between the motility scores and the visually adjudicated 'toxicity scores'. In these cases the 'toxicity score' should be prioritized. Only those Malaria box 'Drug-like' cpds yielding the most severe phenotypes vs. somules were tested. Caffrey group UCSF. It counts as functional.

The subject of assay [6] is Schistosoma mansoni. Put plainly: MMV: Toxicity @ 5 uM to 4-5 Schistosoma mansoni adult males after 72 h on a scale of 0 (none) - 4 (most). Includes short descriptors of effects as judged visually (PMID:19597541). Only those Malaria box 'drug-like' cpds yielding the most severe phenotypes vs. somules were tested. Caffrey group UCSF. It is filed as functional.
For assay [7], the system named is Schistosoma mansoni. Nature of the assay: MMV: Motility assay. Percent change (relative to DMSO controls) @ 5 uM of movement of 4-5 Schistosoma mansoni adult males after 48 h as measured by the Consensus Voting Luminance Difference algorithm available on WormAssay (PMID:22303493). Occasional incongruence ocurrs between the motility scores and the visually adjudicated 'toxicity scores'. In these cases the 'toxicity score' should be prioritized. Only those Malaria box 'Drug-like' cpds yielding the most severe phenotypes vs. somules were tested. Caffrey group UCSF. It is filed as functional.

Assay [8] concerns Schistosoma mansoni. It counts as functional. The arrangement: scale not given here. This is another data set of the same source.
The subject of assay [9] is Schistosoma mansoni. Nature of the assay: MMV: Toxicity @ 5 uM to 4-5 Schistosoma mansoni adult males after 24 h on a scale of 0 (none) - 4 (most). Includes short descriptors of effects as judged visually (PMID:19597541). Only those Malaria box 'drug-like' cpds yielding the most severe phenotypes vs. somules were tested. Caffrey group UCSF. It counts as functional.
Assay [10] deals with Schistosoma mansoni. Put plainly: MMV: Motility assay. Percent change (relative to DMSO controls) @ 5 uM of movement of 4-5 Schistosoma mansoni adult males after 72 h as measured by the Consensus Voting Luminance Difference algorithm available on WormAssay (PMID:22303493). Occasional incongruence ocurrs between the motility scores and the visually adjudicated 'toxicity scores'. In these cases the 'toxicity score' should be prioritized. Only those Malaria box 'Drug-like' cpds yielding the most severe phenotypes vs. somules were tested. Caffrey group UCSF. It is filed as functional.

With `CCOc1cc(Cl)c(C(C)NC(=O)c2cccc(OC)c2)cc1OCC` (centres undefined), the Toxicity in the assay with Schistosoma mansoni [1] was 2; in the assay on Schistosoma mansoni [2], “No effect”; in the assay with Schistosoma mansoni [3], 1.

For the compound `O=C(NC(c1ccccc1)c1ccc2cccnc2c1O)c1ccccc1` (centres undefined), the Toxicity worked out at 4 in the assay with Schistosoma mansoni [1]; 3 in the assay with Schistosoma mansoni [4]; 4 in the assay on Schistosoma mansoni [6]; 3 with Schistosoma mansoni [8]; 0 in the assay on Schistosoma mansoni [9]; 0 with Schistosoma mansoni [3]. Further, the Motility is reported as 74 in the assay on Schistosoma mansoni [5]; 16.1 with Schistosoma mansoni [7]; “Slow, on sides, dark, tegument damage” in the assay on Schistosoma mansoni [10].

With `O=C(O)C(=O)O.Oc1ccc(Br)cc1CN1CCN(Cc2cccc(F)c2)CC1`, the Toxicity in the assay with Schistosoma mansoni [1], in the assay on Schistosoma mansoni [4], in the assay with Schistosoma mansoni [6], in the assay with Schistosoma mansoni [8], in the assay with Schistosoma mansoni [9] and in the assay with Schistosoma mansoni [3] was 1 each time. Also, the Motility is on record as 233 in the assay on Schistosoma mansoni [5], 202.5 in the assay with Schistosoma mansoni [7] and “Overactive” in the assay with Schistosoma mansoni [10].

Consider `O=c1nc(C=Cc2ccc(Br)cc2)oc2ccccc12`, for which the Toxicity was determined as 2 with Schistosoma mansoni [1]; 0 in the assay on Schistosoma mansoni [4]; 0 in the assay on Schistosoma mansoni [6]; 2 with Schistosoma mansoni [8]; 0 in the assay on Schistosoma mansoni [9]; 2 in the assay with Schistosoma mansoni [3]. The Motility is 132 in the assay on Schistosoma mansoni [5], 98.7 in the assay with Schistosoma mansoni [7] and “No effect” in the assay with Schistosoma mansoni [10].

As to `Oc1ccccc1CN1CCC2(CCCN(Cc3ccccc3F)C2)C1` (centres undefined), the Toxicity stood at 3 in the assay with Schistosoma mansoni [1]; 1 in the assay with Schistosoma mansoni [4]; 1 in the assay on Schistosoma mansoni [6]; 3 in the assay on Schistosoma mansoni [8]; 1 with Schistosoma mansoni [9]; 2 with Schistosoma mansoni [3]. The Motility is given as 175.4 with Schistosoma mansoni [5], 150.6 in the assay on Schistosoma mansoni [7] and “overactive” in the assay with Schistosoma mansoni [10].

On to `Oc1c(CN2CCN(c3ccccc3F)CC2)cc(Br)c2cccnc12`, for which the Toxicity in the assay with Schistosoma mansoni [1] was determined as 4; with Schistosoma mansoni [4], 4; in the assay on Schistosoma mansoni [6], 4; with Schistosoma mansoni [8] it was 4; in the assay on Schistosoma mansoni [9], 3; with Schistosoma mansoni [3] it was 0. Besides, the Motility in the assay with Schistosoma mansoni [5] came out at 231; with Schistosoma mansoni [7] it was 54.2; in the assay on Schistosoma mansoni [10], 54.8.

For `COc1cccc(O)c1CN1CCC2(CCCN(Cc3ccc(F)cc3)C2)C1` (centres undefined), the Toxicity is given as 3 in the assay with Schistosoma mansoni [1]; 0 in the assay on Schistosoma mansoni [4]; 0 in the assay with Schistosoma mansoni [6]; 2 in the assay with Schistosoma mansoni [8]; 0 in the assay on Schistosoma mansoni [9]; 3 in the assay with Schistosoma mansoni [3]. The results for the Motility in the assay on Schistosoma mansoni [5], with Schistosoma mansoni [7] and in the assay with Schistosoma mansoni [10] were 168.1, 133.2 and 92.4, respectively.

Turning to `CC(C)(C)CC(C)(C)NCC(O)COc1ccc2c(c1)CCC2.Cl` (centres undefined), the Toxicity with Schistosoma mansoni [1] stood at 4; in the assay on Schistosoma mansoni [4], 1; in the assay with Schistosoma mansoni [6], 1; in the assay on Schistosoma mansoni [8] it was 2; in the assay on Schistosoma mansoni [9] it was 0; with Schistosoma mansoni [3] it was 2. The Motility is 146 with Schistosoma mansoni [5], 153 with Schistosoma mansoni [7] and “overactive” with Schistosoma mansoni [10].

Turning to `CC1CCN(Cc2ccc(NC(=O)c3cc4ccc5cccnc5c4[nH]3)cc2)CC1`, the Toxicity with Schistosoma mansoni [1] is on record as 4; in the assay with Schistosoma mansoni [4], 0; in the assay with Schistosoma mansoni [6] it was 0; in the assay on Schistosoma mansoni [8], 4; in the assay on Schistosoma mansoni [9] it was 0; in the assay on Schistosoma mansoni [3] it was 0. Also, the figures for the Motility in the assay on Schistosoma mansoni [5], in the assay on Schistosoma mansoni [7] and in the assay on Schistosoma mansoni [10] were 138, 97.2 and 110, respectively.

Consider `O=C(Nc1nc(-c2ccccn2)cs1)c1ccccc1Br`, for which the Toxicity with Schistosoma mansoni [1] stood at 4; in the assay with Schistosoma mansoni [4], 0; with Schistosoma mansoni [6] it was 0; in the assay with Schistosoma mansoni [8], 2; in the assay with Schistosoma mansoni [9], 0; in the assay on Schistosoma mansoni [3], 2. Also, the Motility with Schistosoma mansoni [5] is on record as 69.2; in the assay on Schistosoma mansoni [7], 80.4; with Schistosoma mansoni [10] it was 88.

For `CN(C)CCNc1cc(-c2ccccc2)nc2ccccc12`, the Toxicity in the assay on Schistosoma mansoni [1] came to 1; with Schistosoma mansoni [4], 0; in the assay on Schistosoma mansoni [6], 0; in the assay on Schistosoma mansoni [8], 2; with Schistosoma mansoni [9], 1; in the assay on Schistosoma mansoni [3], 2. The Motility is 151.9 in the assay with Schistosoma mansoni [5], 68.3 in the assay on Schistosoma mansoni [7] and “No effect” in the assay on Schistosoma mansoni [10].

Regarding `CC(C)(C)c1ccc(C(=O)Nc2nc3ccccc3s2)cc1`, the Toxicity is 0 with Schistosoma mansoni [1]; 0 in the assay on Schistosoma mansoni [4]; 0 with Schistosoma mansoni [6]; 0 in the assay on Schistosoma mansoni [8]; 0 with Schistosoma mansoni [9]; 2 in the assay with Schistosoma mansoni [3]. Moreover, the Motility is recorded as 58.5 in the assay with Schistosoma mansoni [5], 113.8 in the assay on Schistosoma mansoni [7] and 118 in the assay on Schistosoma mansoni [10].

Turning to `CNCCCNc1ccnc2cc(Cl)ccc12`, the Toxicity stood at 2 in the assay with Schistosoma mansoni [1]; 0 with Schistosoma mansoni [4]; 0 with Schistosoma mansoni [6]; 2 in the assay with Schistosoma mansoni [8]; 0 in the assay on Schistosoma mansoni [9]; 2 with Schistosoma mansoni [3]. Moreover, the Motility is 113.2 in the assay on Schistosoma mansoni [5], 116.2 in the assay with Schistosoma mansoni [7] and “No effect” in the assay on Schistosoma mansoni [10].

As for `CCN(CC)CCn1c(=N)n(CC(O)c2ccc(Cl)c(Cl)c2)c2ccccc21.Cl` (centres undefined), the Toxicity is on record as 4 with Schistosoma mansoni [1]; 1 in the assay with Schistosoma mansoni [4]; 0 in the assay on Schistosoma mansoni [6]; 4 in the assay with Schistosoma mansoni [8]; 0 in the assay on Schistosoma mansoni [9]; 3 with Schistosoma mansoni [3]. The values for the Motility in the assay with Schistosoma mansoni [5], with Schistosoma mansoni [7] and in the assay on Schistosoma mansoni [10] were 68.1, 7.4 and 66.9, respectively.

With `O=C(Nc1ccc(F)c(Cl)c1)Nc1ccc(Cl)c(Cl)c1`, the Toxicity in the assay with Schistosoma mansoni [1] is given as 4; in the assay with Schistosoma mansoni [4], 4; with Schistosoma mansoni [6], 4; in the assay with Schistosoma mansoni [8], 3; in the assay with Schistosoma mansoni [9], 2; with Schistosoma mansoni [3], 3. The Motility with Schistosoma mansoni [5] stood at 3.2; in the assay with Schistosoma mansoni [7], 3.2; in the assay on Schistosoma mansoni [10], 2.6.
